Here are results for two compounds from article PMC12146338, “Bioanalytical assay for the quantification of rucaparib in rat plasma using UPLC-MS/MS: development, and validation for interaction with myricetin” (Frontiers in Pharmacology, 2025).

A short description of data set [1]: Drug-drug interaction (DDI) pharmacokinetic study of rucaparib with or without myricetin in rats. The protocol:
Twelve Sprague-Dawley (SD) male rats were provided with an appropriate environment with unrestricted water and food for seven consecutive days prior to the experiment. The day prior to the study, the rats underwent a 12-h period of fasting while being allowed unfettered access to water. Subsequently, they were randomly assigned to two groups (n = 6). Group A was received an oral dose of rucaparib at 20 mg/kg, while Group B was received an oral administration of rucaparib at 20 mg/kg along with myricetin at 50 mg/kg. The doses of rucaparib ([Augustine et al., 2019]) and myricetin ([Ye et al., 2024]) administered were determined based on prior literatures. Rucaparib was formulated in corn oil with myricetin prepared in 0.5% carboxymethylcellulose sodium (CMC-Na) solution. Group B rats were administered a single gavage of 50 mg/kg of myricetin, while Group A rats were received an equivalent volume of CMC-Na solution. Subsequently, at the 30 min mark, both groups were administered a single dose of 20 mg/kg of rucaparib. Before dosing (designated as 0 h) and at 1.5, 3, 4, 5, 6, 8, 12, 24 and 36 h post-dosing, 0.3 mL of plasma samples were drawn from the caudal vein. These samples were collected into heparin-containing tubes and then centrifuged at 8,000 rpm at 4°C for 10 min. Afterwards, the plasma was transferred to new tubes and preserved at −80°C for further analysis.
The DAS 3.0 software was used to calculate the pharmacokinetic parameters of rucaparib using a non-compartmental model. The key pharmacokinetic parameters of the two groups were analyzed using an independent samples t-test in SPSS 24.0. The p-value of less than 0.05 indicated a significant difference between the two groups. Mean plasma concentration-time curves were generated with GraphPad Prism 9.0 software (GraphPad Software Inc., California, United States).

Data set [2] is described as follows: Stability of rucaparib in rat plasma under different storage conditions (UPLC-MS/MS). It is filed as in vitro ADME. Conditions: n = 5. The protocol:
The stability experiment was conducted at three different QCs (5.0, 200, and 400 ng/mL). It was carried out under various storage conditions, with each condition having five replicates (n = 5). These storage conditions encompassed stability within the analyzer (lasting for 4 h at 10°C), long-term storage (for 3 weeks at −80°C), short-term storage (for 3 h at room temperature) and freeze-thaw cycles (conducted three times).
The stability of rucaparib in rat plasma was examined under four distinct storage conditions. These included short-term storage (lasting 3 h at room temperature), exposure to three freeze-thaw cycles (transitioning from −80°C to room temperature), long-term storage (at −80°C for 21 days), and a 4 h placement in an autosampler maintained at 10°C.

A further data set relates to CYP2D6. Details: method as in Lee et al., 2012. The conditions noted are these: ref Lee et al., 2012; read-out: half-maximal inhibitory concentrations value, CYP2D6 metabolism; cited from earlier work.
On the set-up of data set [3]: method as in Ross and Kasum, 2002. Conditions: ref Ross and Kasum, 2002; cited from earlier work.
The mark [4] stands for this setting: male, Sprague-Dawley, rat, in vivo, po, 20 mg/kg.

For orientation: AUC(0-inf) means the area under the concentration-time curve extrapolated to infinity. Broadly, the AUC(0-t) is the area under the concentration-time curve up to a stated or last time point. Broadly, the CL/F is clearance divided by bioavailability, as obtained after extravascular dosing. As a reminder, the Cmax is the peak of the concentration-time curve. One may read the Tmax as the time at which the peak concentration occurs. Usually half-life stands for how long it takes for the measured level to halve. The low end stands for fast loss, the high end for slow loss. Compound `CNCc1ccc(-c2[nH]c3cc(F)cc4c3c2CCNC4=O)cc1` [Rucaparib] had an AUC(0-inf) in data set [1] (setting [4]) of 1320 ng·h/mL. Moreover, the AUC(0-t) in data set [1] (setting [4]) is 1220 ng·h/mL. The compound also had an apparent clearance CL/F in data set [1] (setting [4]) of 294 mL/min/kg. This compound registered a Cmax in data set [1] (setting [4]) of 126 ± 58.5 ng/mL. Moreover, in data set [1] (setting [4]), the time to peak (Tmax) amounted to 4.25 ± 1.78 h. Moreover, in data set [1] (setting [4]), the half-life is 10.9 ± 3.41 h. The “Stability RE (%)” value in data set [2] (added 5.0 ng/mL, Autosampler 10°C, 4 h) was 1.5%; in data set [2] (added 5.0 ng/mL, Room temperature, 3 h), −4.2%; in data set [2] (added 5.0 ng/mL, Three freeze-thaw), −10.1%; in data set [2] (added 5.0 ng/mL, −80°C, 3 weeks), 5.7%; in data set [2] (added 200 ng/mL, Autosampler 10°C, 4 h) it was 1.4%; in data set [2] (added 200 ng/mL, Room temperature, 3 h), −11.5%. Besides, the “Stability RE (%)” value in data set [2] (added 200 ng/mL, Three freeze-thaw) is reported as −1.6%; in data set [2] (added 200 ng/mL, −80°C, 3 weeks), 9.2%; in data set [2] (added 400 ng/mL, Autosampler 10°C, 4 h), 8.1%; in data set [2] (added 400 ng/mL, Room temperature, 3 h) it was −3.1%; in data set [2] (added 400 ng/mL, Three freeze-thaw) it was −11.6%; in data set [2] (added 400 ng/mL, −80°C, 3 weeks), 1.4%.

Turning to `O=c1c(O)c(-c2cc(O)c(O)c(O)c2)oc2cc(O)cc(O)c12` [myricetin], the “effect on plasma exposure to rucaparib” value in data set [1] (rats, 50 mg/kg myricetin + 20 mg/kg rucaparib vs rucaparib alone, independent samples t-test, p < 0.05) is on record as “no significant effect”. In the data set on CYP2D6, the IC50 is 57 µM. In addition, the bioavailability entry in data set [3] is reported as “low bioavailability”.
